Tests used:
mice = assay: Acute toxicity in mice, subcutaneous; assay type: in vivo
[1] = target: T1, Lactamase, Staph. aureus Russell (Staphylococcus aureus, UniProt P00807); assay: Lactamase inhibition, enzyme from Staph. aureus Russell; assay type: biochemical; details: source of enzyme Staph. aureus Russell; read-out: Lactamase inhibition I50 (converted)
T1 construct: Source of; endogenous in cells; host or cells: Staphylococcus aureus strain Russell

[2] = target: Lactamase, Kleb. aerogenes E70; assay: Lactamase inhibition, enzyme from Kleb. aerogenes E70; assay type: biochemical; details: source of enzyme Kleb. aerogenes E70
[3] = target: Lactamase, Proteus mirabilis C889; assay: Lactamase inhibition, enzyme from Proteus mirabilis C889; assay type: biochemical; details: source of enzyme Proteus mirabilis C889
Lactamase, E. coli JT 4 = target: T2, Lactamase, E. coli JT 4 (Escherichia coli, UniProt P62593); assay: Lactamase inhibition, enzyme from E. coli JT 4; assay type: biochemical; details: source of enzyme E. coli JT 4; read-out: Lactamase inhibition I50 (converted)
T2 construct: Source of; endogenous in cells; host or cells: Escherichia coli strain JT 4
T2 sequence (P62593 24-286 limits assumed): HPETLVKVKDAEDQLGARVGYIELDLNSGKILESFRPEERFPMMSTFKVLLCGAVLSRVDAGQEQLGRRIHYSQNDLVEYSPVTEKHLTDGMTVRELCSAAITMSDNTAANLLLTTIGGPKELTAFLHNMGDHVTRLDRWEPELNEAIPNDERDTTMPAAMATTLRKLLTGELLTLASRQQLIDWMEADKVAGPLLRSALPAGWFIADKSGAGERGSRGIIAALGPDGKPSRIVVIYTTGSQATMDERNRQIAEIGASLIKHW

[4] = target: T3, Lactamase, Pseudomonas aerogenosa Dalgleish (Pseudomonas aeruginosa, UniProt P16897); assay: Lactamase inhibition, enzyme from Pseudomonas aerogenosa Dalgleish; assay type: biochemical; details: source of enzyme Pseudomonas aerogenosa Dalgleish; read-out: Lactamase inhibition I50 (converted)
T3 construct: Source of; endogenous in cells; host or cells: Pseudomonas aeruginosa strain Dalgleish
T3 sequence (P16897 18-288): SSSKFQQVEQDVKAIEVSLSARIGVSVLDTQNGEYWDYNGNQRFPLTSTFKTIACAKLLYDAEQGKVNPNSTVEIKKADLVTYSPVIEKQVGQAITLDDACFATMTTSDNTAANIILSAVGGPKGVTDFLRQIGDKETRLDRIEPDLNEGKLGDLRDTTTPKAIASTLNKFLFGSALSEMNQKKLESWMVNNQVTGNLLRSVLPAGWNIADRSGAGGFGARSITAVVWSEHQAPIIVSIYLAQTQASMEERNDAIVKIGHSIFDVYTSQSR

[5] = target: T4, Lactamase, Enterobacter P99 (Enterobacter cloacae, UniProt P05364); assay: Lactamase inhibition, enzyme from Enterobacter P99; assay type: biochemical; details: source of enzyme Enterobacter P99; read-out: Lactamase inhibition I50 (converted)
T4 construct: Source of; endogenous in cells; host or cells: Enterobacter (cloacae) strain P99
T4 sequence (P05364 21-381): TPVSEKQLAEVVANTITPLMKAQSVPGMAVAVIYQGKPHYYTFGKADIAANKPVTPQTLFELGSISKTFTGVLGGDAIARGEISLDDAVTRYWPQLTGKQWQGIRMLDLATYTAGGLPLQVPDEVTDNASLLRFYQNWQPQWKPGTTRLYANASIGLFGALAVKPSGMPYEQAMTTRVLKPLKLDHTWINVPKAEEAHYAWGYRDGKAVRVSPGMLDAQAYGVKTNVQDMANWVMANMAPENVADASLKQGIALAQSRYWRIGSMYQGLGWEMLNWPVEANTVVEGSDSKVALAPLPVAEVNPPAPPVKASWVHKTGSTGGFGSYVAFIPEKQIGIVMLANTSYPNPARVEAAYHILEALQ

Klebsiella aerogenes E70 = assay: Effect on MIC of ampicillin against β-lactamase producing bacteria, Klebsiella E 70; assay type: cell-based; details: ampicillin alone
Procedure: (§1) a. Compounds of this invention were tested by conventional methods to determine their effect on the MIC (minimum inhibitory concentration) values of ampicillin against certain β-lactamase producing bacteria. The results for the compounds of the formula [drawing 124] were as follows: […]

[6] = tested on: Staphylococcus aureus Russell; assay: Effect on MIC of ampicillin against β-lactamase producing bacteria, Staphylococcus aureus Russell; assay type: cell-based; details: ampicillin alone, Staph. aureus Russell
Procedure: as §1

T1 sequence (P00807 25-281): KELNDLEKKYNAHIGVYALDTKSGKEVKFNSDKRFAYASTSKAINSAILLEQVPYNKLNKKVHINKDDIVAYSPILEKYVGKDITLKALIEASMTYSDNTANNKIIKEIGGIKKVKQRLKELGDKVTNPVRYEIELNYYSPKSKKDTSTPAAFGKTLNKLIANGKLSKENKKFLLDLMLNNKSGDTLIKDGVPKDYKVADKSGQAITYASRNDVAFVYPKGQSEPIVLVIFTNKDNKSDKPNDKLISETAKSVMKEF

With O=C(O)[C@H]1/C(=C/c2ccccc2)O[C@@H]2CC(=O)N21 (relative stereo) [Z1=CO2 Na, Z2=H, Z3=C6 H5, Sodium (Z)-(2RS,5RS)-(3-benzylidene)-7-oxo-4-oxa-1-azabicyclo[3,2,0]-heptane-2-carboxylate] the “deaths in a group of mice” value (mice; subcutaneously at 1000 mg/kg) was “did not cause any deaths”.

C[C@@H](NC(=O)/C=C1\CN2C(=O)C[C@H]2O1)c1ccccc1 [Example 5-R-epimer, (E)-5-R-3-[N-(R-1-Phenylethyl)carbamoylmethylene]-4-oxa-1-azabicyclo [3.2.0]heptan-7-one] was tested, and the IC50 [1] was 0.918 µM, the “Lactamase inhibition I50” value [2] was 2.4 µg/mL and the “Lactamase inhibition I50” value [3] was 0.6 µg/mL. It also gave an IC50 (Lactamase, E. coli JT 4) of 1.47 µM, an IC50 [4] of 2.39 µM and an IC50 [5] of 1.47 µM.

With C[C@@H](NC(=O)/C=C1\CN2C(=O)C[C@@H]2O1)c1ccccc1 [Example 5-S-epimer, (E)-5-S-[N-(R-1-Phenylethyl)carbamoylmethylene]-4-oxa-1-azabicyclo[3.2.0]heptan-7-one] the IC50 [1] was 47.7 µM, the “Lactamase inhibition I50” value [2] was > 40 µg/mL and the “Lactamase inhibition I50” value [3] was 8.8 µg/mL. It also gave an IC50 (Lactamase, E. coli JT 4) of 21.3 µM, an IC50 [4] of 64.6 µM and an IC50 [5] of 4.41 µM.

With O=C(O)/C(=C1\CN2C(=O)CC2O1)c1ccccc1 (stereo not shown) [Z1=H, Z2=CO2 Na, Z3=C6 H5, Sodium (E)-7-oxo-4-oxa-1-azabicyclo[3.2.0]heptane-3-(benzylidene-1-carboxylate)] the “deaths in a group of mice” value (mice; subcutaneously at 250 mg/kg) was “did not cause any deaths”.

With CC1(C)S[C@@H]2[C@H](NC(=O)[C@H](N)c3ccccc3)C(=O)N2[C@H]1C(=O)O [ampicillin] the MIC (Klebsiella aerogenes E70) was > 2000 µg/mL and the MIC [6] was 250 µg/mL.

From patent publication US4206120A, “Oxaazabicycloheptane antibiotics” (Beecham Group Limited, priority 1976, dated 1980)
